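Five compound concentrations were applied to cells in 96-well plates for 48 hours; endpoints were derived by simple linear interpolation of the resulting dose-response curve. GI50 = concentration required for 50% inhibition of growth.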 The source made the active and inactive calls. Rule as the data show it: active = GI50 up to about 1.1 µM and inactive = higher.
Tests used:
Assay in all cases: DTP human tumour cell line panel, 48 h
[1] = test system: SW-620
[2] = test system: A498
[3] = test system: 786-0
[4] = test system: UACC-257
[5] = test system: ACHN
[6] = test system: HCC 2998
[7] = test system: NCI-H23
[8] = test system: SNB-75
[9] = test system: RPMI-8226
[10] = test system: HCT-15
[11] = test system: OVCAR-8
[12] = test system: NCI-H460
[13] = test system: HL-60
[14] = test system: SK-MEL-2
[15] = test system: KM12
[16] = test system: COLO 205
[17] = test system: MOLT-4
[18] = test system: MDA-MB-435
[19] = test system: UACC-62
[20] = test system: IGROV-1
[21] = test system: HCT-116
[22] = test system: HOP-62
[23] = test system: Malme-3M
[24] = test system: SF-295
[25] = test system: SF-268
[26] = test system: Hs-578T
[27] = test system: SR
[28] = test system: EKVX
[29] = test system: LOX IMVI
[30] = test system: MDA-MB-231
[31] = test system: NCI-H226
[32] = test system: DU-145
[33] = test system: K562
[34] = test system: OVCAR-5
[35] = test system: OVCAR-3
[36] = test system: CCRF-CEM
[37] = test system: HOP-92
[38] = test system: UO-31
[39] = test system: A549
[40] = test system: HT-29
[41] = test system: PC-3
[42] = test system: MDA-N
[43] = test system: T47D
[44] = test system: OVCAR-4
[45] = test system: RXF 393
[46] = test system: SN12C
[47] = test system: MCF7
[48] = test system: SK-MEL-5
[49] = test system: TK-10
[50] = test system: BT-549
[51] = test system: SK-OV-3
[52] = test system: NCI/ADR-RES
[53] = test system: CAKI-1
[54] = test system: SF-539
[55] = test system: SK-MEL-28
[56] = test system: NCI-H522
[57] = test system: U-251
[58] = test system: SNB-19
[59] = test system: M14

Compound: CN(/N=C(\C(=O)O)c1ccccc1)C1=NCCN1
- GI50 [1]: > 100 µM (inactive)
- GI50 [2]: > 100 µM (inactive)
- GI50 [3]: > 100 µM (inactive)
- GI50 [4]: > 100 µM (inactive)
- GI50 [5]: > 100 µM (inactive)
- GI50 [6]: > 100 µM (inactive)
- GI50 [7]: > 100 µM (inactive)
- GI50 [8]: > 100 µM (inactive)
- GI50 [9]: > 100 µM (inactive)
- GI50 [10]: > 100 µM
- GI50 [11]: > 100 µM (inactive)
- GI50 [12]: > 100 µM (inactive)
- GI50 [13]: > 100 µM (inactive)
- GI50 [14]: > 100 µM (inactive)
- GI50 [15]: > 100 µM (inactive)
- GI50 [16]: > 100 µM (inactive)
- GI50 [17]: > 100 µM (inactive)
- GI50 [18]: > 100 µM (inactive)
- GI50 [19]: > 100 µM (inactive)
- GI50 [20]: 54.2 µM (inactive)
- GI50 [21]: > 100 µM (inactive)
- GI50 [22]: > 100 µM (inactive)
- GI50 [23]: > 100 µM (inactive)
- GI50 [24]: > 100 µM (inactive)
- GI50 [25]: > 100 µM (inactive)
- GI50 [26]: > 100 µM (inactive)
- GI50 [27]: > 100 µM (inactive)
- GI50 [28]: 83.6 µM (inactive)
- GI50 [29]: > 100 µM (inactive)
- GI50 [30]: > 100 µM (inactive)
- GI50 [31]: > 100 µM (inactive)
- GI50 [32]: > 100 µM (inactive)
- GI50 [33]: > 100 µM (inactive)
- GI50 [34]: > 100 µM (inactive)
- GI50 [35]: > 100 µM (inactive)
- GI50 [36]: > 100 µM (inactive)
- GI50 [37]: > 100 µM (inactive)
- GI50 [38]: > 100 µM (inactive)
- GI50 [39]: > 100 µM (inactive)
- GI50 [40]: > 100 µM (inactive)
- GI50 [41]: > 100 µM (inactive)
- GI50 [42]: > 100 µM (inactive)
- GI50 [43]: > 100 µM (inactive)
- GI50 [44]: > 100 µM (inactive)
- GI50 [45]: > 100 µM (inactive)
- GI50 [46]: > 100 µM (inactive)
- GI50 [47]: > 100 µM (inactive)
- GI50 [48]: > 100 µM (inactive)
- GI50 [49]: > 100 µM (inactive)
- GI50 [50]: 47.2 µM (inactive)
- GI50 [51]: > 100 µM (inactive)
- GI50 [52]: > 100 µM (inactive)
- GI50 [53]: > 100 µM (inactive)
- GI50 [54]: > 100 µM (inactive)
- GI50 [55]: > 100 µM (inactive)
- GI50 [56]: > 100 µM (inactive)

Compound: CCOC(=O)C(NC(=O)c1ccccc1)(N1CCN(c2cc3c(cc2F)c(=O)c(C(=O)O)cn3CC)CC1)C(F)(F)F (stereo unspecified)
- GI50 [1]: 47.6 µM (inactive)
- GI50 [2]: 24.5 µM (inactive)
- GI50 [3]: 39.7 µM (inactive)
- GI50 [4]: 12.9 µM (inactive)
- GI50 [5]: 33.1 µM (inactive)
- GI50 [6]: 52.2 µM (inactive)
- GI50 [7]: 32.4 µM (inactive)
- GI50 [8]: 26.1 µM (inactive)
- GI50 [9]: 25.2 µM (inactive)
- GI50 [10]: 24.4 µM
- GI50 [11]: 19.2 µM (inactive)
- GI50 [12]: 32.1 µM (inactive)
- GI50 [13]: 20 µM (inactive)
- GI50 [14]: 31.5 µM (inactive)
- GI50 [15]: 25.9 µM (inactive)
- GI50 [16]: 17.1 µM (inactive)
- GI50 [17]: 21.5 µM (inactive)
- GI50 [18]: 29.2 µM (inactive)
- GI50 [19]: 29.6 µM (inactive)
- GI50 [20]: 38.4 µM (inactive)
- GI50 [21]: 33.9 µM (inactive)
- GI50 [22]: 31.2 µM (inactive)
- GI50 [23]: 22 µM (inactive)
- GI50 [24]: 37.5 µM (inactive)
- GI50 [25]: 40.9 µM (inactive)
- GI50 [26]: 43.3 µM (inactive)
- GI50 [27]: 27.2 µM (inactive)
- GI50 [28]: 17.1 µM (inactive)
- GI50 [29]: 15.6 µM (inactive)
- GI50 [30]: 23.6 µM (inactive)
- GI50 [31]: 29.2 µM (inactive)
- GI50 [32]: 59.3 µM (inactive)
- GI50 [57]: 41.2 µM (inactive)
- GI50 [58]: 29.9 µM (inactive)
- GI50 [33]: 31.8 µM (inactive)
- GI50 [34]: 21.1 µM (inactive)
- GI50 [35]: 31.3 µM (inactive)
- GI50 [36]: 21.8 µM (inactive)
- GI50 [37]: 28.8 µM (inactive)
- GI50 [38]: 31.3 µM (inactive)
- GI50 [39]: 39.9 µM (inactive)
- GI50 [40]: 29 µM (inactive)
- GI50 [41]: 31.3 µM (inactive)
- GI50 [42]: 37.7 µM (inactive)
- GI50 [43]: 23.9 µM (inactive)
- GI50 [44]: 33.1 µM (inactive)
- GI50 [45]: 33.8 µM (inactive)
- GI50 [46]: 32.9 µM (inactive)
- GI50 [47]: 26.6 µM (inactive)
- GI50 [48]: 22.9 µM (inactive)
- GI50 [49]: 29.4 µM (inactive)
- GI50 [50]: 35.9 µM (inactive)
- GI50 [51]: 34.3 µM (inactive)
- GI50 [52]: 41.4 µM (inactive)
- GI50 [53]: 21.4 µM (inactive)
- GI50 [54]: 26.5 µM (inactive)
- GI50 [55]: < 0.01 µM (active)
- GI50 [59]: 51.1 µM (inactive)
- GI50 [56]: 16.7 µM (inactive)

Compound: CC(NC1=NCCO1)c1ccsc1 (stereo unspecified)
- GI50 [1]: 21.5 µM (inactive)
- GI50 [2]: > 100 µM (inactive)
- GI50 [3]: 18.8 µM (inactive)
- GI50 [4]: 14.4 µM (inactive)
- GI50 [5]: 44.9 µM (inactive)
- GI50 [6]: 69.3 µM (inactive)
- GI50 [7]: 64.4 µM (inactive)
- GI50 [8]: 13.2 µM (inactive)
- GI50 [9]: 7.52 µM (inactive)
- GI50 [10]: 40.7 µM
- GI50 [11]: 28.6 µM (inactive)
- GI50 [12]: 10.9 µM (inactive)
- GI50 [13]: 21.5 µM (inactive)
- GI50 [14]: 21.9 µM (inactive)
- GI50 [15]: 18.8 µM (inactive)
- GI50 [16]: 17.9 µM (inactive)
- GI50 [17]: 22.7 µM (inactive)
- GI50 [18]: 20.9 µM (inactive)
- GI50 [19]: 17.6 µM (inactive)
- GI50 [20]: 34.8 µM (inactive)
- GI50 [21]: 16.4 µM (inactive)
- GI50 [23]: 21 µM (inactive)
- GI50 [24]: 17.8 µM (inactive)
- GI50 [26]: 11.5 µM (inactive)
- GI50 [27]: 24.8 µM (inactive)
- GI50 [28]: 54.7 µM (inactive)
- GI50 [29]: 20.3 µM (inactive)
- GI50 [30]: 18.2 µM (inactive)
- GI50 [31]: 58.1 µM (inactive)
- GI50 [32]: 43.1 µM (inactive)
- GI50 [57]: 18.2 µM (inactive)
- GI50 [58]: 37.3 µM (inactive)
- GI50 [33]: 21.4 µM (inactive)
- GI50 [34]: > 100 µM (inactive)
- GI50 [35]: 28.8 µM (inactive)
- GI50 [36]: 19.4 µM (inactive)
- GI50 [37]: 23.6 µM (inactive)
- GI50 [38]: > 100 µM (inactive)
- GI50 [39]: 39.4 µM (inactive)
- GI50 [40]: 15.2 µM (inactive)
- GI50 [41]: 21.1 µM (inactive)
- GI50 [42]: 24.2 µM (inactive)
- GI50 [43]: 33.3 µM (inactive)
- GI50 [44]: 24.9 µM (inactive)
- GI50 [45]: 33.5 µM (inactive)
- GI50 [47]: 34.8 µM (inactive)
- GI50 [48]: 20 µM (inactive)
- GI50 [49]: 65.5 µM (inactive)
- GI50 [50]: 31.6 µM (inactive)
- GI50 [51]: 71.8 µM (inactive)
- GI50 [52]: > 100 µM (inactive)
- GI50 [53]: > 100 µM (inactive)
- GI50 [54]: 16.2 µM (inactive)
- GI50 [55]: 19 µM (inactive)
- GI50 [59]: 17.6 µM (inactive)
- GI50 [56]: 17.7 µM (inactive)

From ChEMBL document CHEMBL1201862, “PubChem BioAssay data set” (2004)
